# Data taken from patent US7148194B2, “Method to increase fibronectin” (Kimberly-Clark Worldwide, Inc., priority 2002, dated 2006).
# Tested on: collagen production in human skin fibroblast cell line
# Test: collagen production in human skin fibroblasts, EIA
# Format: cell-based
# Details: for Mean (collagen EIA, absorbance at 450 nm) / Median (collagen EIA, absorbance at 450 nm): 48 hours, n=2; for collagen production versus control: 10^−5 and 10^−6 M, P<0.001
# Description: The stimulation response of the 19mer peptide on collagen production in the human skin fibroblast cell line (Clonetics, Walkersville, Md., normal human dermal fibroblasts, neonatal, catalog number CC-2509) was measured using Takara Biomedicals EIA assay kit (TAK MKO101) sold by Panvera (Madison, Wis.). The cells were first grown in a 96-well assay system using DMEM with 10% fetal bovine serum (FBS) both purchased from Sigma Chemical Co, St. Louis, Mo. Serum-free DMEM was used as a control. […] Plates were incubated for 24 hours at 37° C. in a humidified 5% CO2 atmosphere. After incubation, the medium was aspirated and the wells were rinsed twice with 100 μl of serum-free DMEM. […] In addition, 100 μl of vehicle (serum-free DMEM) was added to 4 wells as control. All wells were incubated for 48 hours at 37° C. in a humidified, 5% CO2 atmosphere.
# The assay was performed using the recommended 20ul of the supernatant from each well of the 96-well plate. Standard buffer and stop solutions were freshly prepared before running the assay. 100ul of antibody-POD conjugate solution (supplied with the kit) was added into the wells using pre antibody coated 96 well plate (supplied with the kit). 20ul of standard and test solutions (from the other 96-well plate containing fibroblasts) were added to appropriate wells. Plate was mixed gently, sealed and incubated for three hrs. at 37° C.
# After incubation each well was washed carefully four times with PBS buffer (400ul). All the wells were completely emptied at the end of washing from any liquid. 100ul of substrate solution (hydrogen peroxide and tetramethylbenzidine in a buffer solution, supplied with the kit) was added to each well and the plate was incubated for 15 minutes. At this point 100ul of stop solution (freshly prepared 1N H2SO4) was added to each well in the same order as substrate. The plate was gently mixed and absorbance was read at 450 nm. Results were analyzed statistically using one-way ANOVA.
smiles,measurement,setting,value
CC(C)[C@H](NC(=O)[C@H](CC(=O)O)NC(=O)[C@@H]1CCCN1C(=O)[C@H](CC(N)=O)NC(=O)CNC(=O)[C@H](CS)NC(=O)[C@H](CCCNC(=N)N)NC(=O)[C@@H]1CCCN1)C(=O)N[C@@H](C)C(=O)N[C@@H](CC(N)=O)C(=O)N[C@@H](Cc1ccc(O)cc1)C(=O)N[C@@H](CC(N)=O)C(=O)N[C@@H](Cc1ccccc1)C(=O)N[C@@H](Cc1ccccc1)C(=O)N1CCC[C@H]1C(=O)N[C@@H](CCCNC(=N)N)C(=O)N[C@@H](CCCCN)C(=O)N1CCC[C@H]1C(=O)N[C@@H](CCCCN)C(=O)O [Peptide 19-mer],"Mean (collagen EIA, absorbance at 450 nm)",1×10^−5 M,0.8365
same,"Median (collagen EIA, absorbance at 450 nm)",1×10^−5 M,0.8365
same,"Mean (collagen EIA, absorbance at 450 nm)",1×10^−6 M,0.8315
same,"Median (collagen EIA, absorbance at 450 nm)",1×10^−6 M,0.8315
same,collagen production versus control,,increased collagen production
same,collagen production versus control,listed as 19mer peptide,statistically significant amounts
